What all share (assay type): biochemical, Spirodela polyrhiza
Assay [1] deals with T1, SpPAL2.
T1 construct: full-length ORF (2277 bp); about 83 kDa; homotetramer only predicted
In words: Michaelis-Menten kinetics, deamination to trans-cinnamic acid. The note with it: 0-20 mM L-Phe; pH and temperature of the kinetic runs not clearly stated (activity assay: 100 mM Tris-HCl pH 8.0, 50 °C). The text has this: Michaelis-Menten kinetics, deamination to trans-cinnamic acid on SpPAL2

In assay [2] the test system is T2, SpPAL1.
T2 construct: full-length ORF (2172 bp); about 78 kDa; homotetramer only predicted
The description is as above. The note with it: 0-20 mM L-Phe; pH and temperature of the kinetic runs not clearly stated (activity assay: 100 mM Tris-HCl pH 8.0, 50 °C). The text has this:
Michaelis-Menten kinetics, deamination to trans-cinnamic acid on SpPAL1

For the next assay, the system named is T3, SpPAL3.
T3 construct: about 79 kDa; homotetramer only predicted
The description is as above. The note with it: 0-20 mM L-Phe; pH and temperature of the kinetic runs not clearly stated (activity assay: 100 mM Tris-HCl pH 8.0, 50 °C). The text has this: Michaelis-Menten kinetics, deamination to trans-cinnamic acid on SpPAL3

For assay [3], the system named is T1, SpPAL2. The assay can be described thus: Michaelis-Menten kinetics, deamination to p-coumaric acid. The note with it: 0.1-2.5 mM L-Tyr; pH and temperature of the kinetic runs not clearly stated (activity assay: 100 mM Tris-HCl pH 8.0, 50 °C); Km lies above the tested concentration range. The source says: Michaelis-Menten kinetics, deamination to p-coumaric acid on SpPAL2

The test system of assay [4] is T2, SpPAL1. The assay is described as above. The following applies: 0.1-2.5 mM L-Tyr; pH and temperature of the kinetic runs not clearly stated (activity assay: 100 mM Tris-HCl pH 8.0, 50 °C). The text has this:
Michaelis-Menten kinetics, deamination to p-coumaric acid on SpPAL1

These results are taken from article PMC11435183, “Enzymatic Characterization of SpPAL Genes in S. polyrhiza and Overexpression of the SpPAL3” (Plants, 2024).

As usually defined, the Km is the substrate concentration at which the rate is half of its maximum. Take `N[C@@H](Cc1ccccc1)C(=O)O` [L-Phe]: the results for the Km with SpPAL2 [1], in the assay on SpPAL1 [2] and in the assay on SpPAL3 were 345 µM, 252 µM and 632 µM, respectively.
With `N[C@@H](Cc1ccc(O)cc1)C(=O)O` [L-Tyr], the values for the Km with SpPAL2 [3] and in the assay with SpPAL1 [4] were 8720 µM and 1290 µM, respectively.
